# Experiments:
# HL-60 AML cells = assay: HL-60 subcutaneous AML xenograft, tumor volume over time; assay type: in vivo, SCID mice; details: FIG. 2; AZD2811 nanoparticles 50, 25, 12.5 or 6.25 mg/kg iv once weekly, venetoclax 100 mg/kg orally daily, 3 weekly cycles; combination benefit notably at the lowest doses of AZD2811
# Protocol: HL-60: 1×10^7 HL-60 AML cells in 50% matrigel were implanted subcutaneously on the left flank of adult female SCID mice. Mice were randomised by tumor volume at D7 into groups of 8, with an average tumor volume of 0.2 cm^3 and all dosing was started. AZD2811 nanoparticles were dosed at once weekly with a 20-30 s intravenous infusion at either 50 mg/kg, 25 mg/kg, 12.5 mg/kg and 6.25 mg/kg (100 mg/kg was the maximum tolerated dose in combination with venetoclax (ABT-199) 100 mg/kg; venetoclax was administered orally daily at 100 mg/kg). All drugs were given for 3 weekly cycles. For both models, tumors were measured twice weekly by single operators, and all dosing was performed by randomised cage to minimise systematic bias. For the MOLM-13 orthotopic model, 1×10^6 MOLM-13 cells were injected into the tail vien of adult female NOG mice. After 3 days, mice were randomised by body-weight into groups of 8 and treatment was commenced the following day. AZD2811 nanoparticles were dosed at once weekly with a 20-30 s intravenous infusion at 25 mg/kg (25 mg/kg was the maximum tolerated dose in combination with venetoclax (ABT-199) 100 mg/kg; venetoclax was administered orally daily at 100 mg/kg). […] All drugs were given for 2 weekly cycles, the study endpoint was determined by a welfare scoring table.
# KG1a AML cells = assay: KG1a subcutaneous AML xenograft, tumor volume over time; assay type: in vivo, SCID mice; details: FIG. 1; AZD2811 nanoparticles 100 mg/kg iv once weekly, venetoclax 100 mg/kg orally daily, 3 weekly cycles
# Protocol: KGa1: 2×10^7 KG1a AML cells in 50% matrigel were implanted subcutaneously on the left flank of adult female SCID mice. Mice were randomised by tumor volume at D7 into groups of 8, with an average tumor volume of 0.2 cm^3 and all dosing was started. AZD2811 nanoparticles were dosed at once weekly with a 20-30 s intravenous infusion at either 100 mg/kg (100 mg/kg was the maximum tolerated dose in combination with venetoclax (ABT-199) 100 mg/kg; venetoclax was administered orally daily at 100 mg/kg). All drugs were given for 3 weekly cycles.
# HL-60: 1×10^7 HL-60 AML cells in 50% matrigel were implanted subcutaneously on the left flank of adult female SCID mice. Mice were randomised by tumor volume at D7 into groups of 8, with an average tumor volume of 0.2 cm^3 and all dosing was started. AZD2811 nanoparticles were dosed at once weekly with a 20-30 s intravenous infusion at either 50 mg/kg, 25 mg/kg, 12.5 mg/kg and 6.25 mg/kg (100 mg/kg was the maximum tolerated dose in combination with venetoclax (ABT-199) 100 mg/kg; venetoclax was administered orally daily at 100 mg/kg). All drugs were given for 3 weekly cycles. For both models, tumors were measured twice weekly by single operators, and all dosing was performed by randomised cage to minimise systematic bias. […] All drugs were given for 2 weekly cycles, the study endpoint was determined by a welfare scoring table.
structure (smiles),measurement,setting,value
"CC1(C)CCC(CN2CCN(c3ccc(C(=O)NS(=O)(=O)c4ccc(NCC5CCOCC5)c([N+](=O)[O-])c4)c(Oc4cnc5[nH]ccc5c4)c3)CC2)=C(c2ccc(Cl)cc2)C1 [venetoclax, Venetoclax]",efficacy (HL-60 tumor volume over time),HL-60 AML cells,active
same,efficacy (KG1a tumor volume over time),KG1a AML cells,modestly efficacious
